Legend:
Format in all cases: in vivo
Avena fatua (AVEFA) [1] = assay: Post-emergence herbicidal activity, glasshouse; conditions: post-emergence spray after 8 days cultivation; rate 250 g/ha; evaluated after 13 days; 100=total damage to plant, 0=no damage to plant
Procedure: (§1) Seeds of a variety of test species are sown in standard soil in pots. After cultivation for one day (pre-emergence) or after 8 days cultivation (post-emergence) under controlled conditions in a glasshouse (at 24/16° C., day/night; 14 hours light; 65% humidity), the plants are sprayed with an aqueous spray solution derived from the formulation of the technical active ingredient in acetone/water (50:50) solution containing 0.5% Tween 20 (polyoxyethelyene sorbitan monolaurate, CAS RN 9005-64-5). The test plants are then grown in a glasshouse under controlled conditions in a glasshouse (at 24/16° C., day/night; 14 hours light; 65% humidity) and watered twice daily. After 13 days for pre and post-emergence, the test is evaluated (100=total damage to plant; 0=no damage to plant). Test plants: • Lolium perenne (LOLPE), Alopecurus myosuroides (ALOMY), Echinochloa crus-galli (ECHCG), Avena fatua (AVEFA)

Lolium perenne (LOLPE) [2] = assay: Post-emergence herbicidal activity, glasshouse; conditions: post-emergence spray after 8 days cultivation; rate 250 g/ha; evaluated after 13 days; 100=total damage to plant, 0=no damage to plant
Procedure: as §1

[3] = test system: Alopecurus myosuroides (ALOMY); assay: Post-emergence herbicidal activity, glasshouse; conditions: post-emergence spray after 8 days cultivation; rate 250 g/ha; evaluated after 13 days; 100=total damage to plant, 0=no damage to plant
Procedure: as §1

[4] = test system: Echinochloa crus-galli (ECHCG); assay: Post-emergence herbicidal activity, glasshouse; conditions: post-emergence spray after 8 days cultivation; rate 250 g/ha; evaluated after 13 days; 100=total damage to plant, 0=no damage to plant
Procedure: as §1

Avena fatua (AVEFA) [5] = assay: Pre-emergence herbicidal activity, glasshouse; conditions: pre-emergence spray after one day cultivation; rate 250 g/ha; evaluated after 13 days; 100=total damage to plant, 0=no damage to plant
Procedure: as §1

Lolium perenne (LOLPE) [6] = assay: Pre-emergence herbicidal activity, glasshouse; conditions: pre-emergence spray after one day cultivation; rate 250 g/ha; evaluated after 13 days; 100=total damage to plant, 0=no damage to plant
Procedure: as §1

[7] = test system: Alopecurus myosuroides (ALOMY); assay: Pre-emergence herbicidal activity, glasshouse; conditions: pre-emergence spray after one day cultivation; rate 250 g/ha; evaluated after 13 days; 100=total damage to plant, 0=no damage to plant
Procedure: as §1

[8] = test system: Echinochloa crus-galli (ECHCG); assay: Pre-emergence herbicidal activity, glasshouse; conditions: pre-emergence spray after one day cultivation; rate 250 g/ha; evaluated after 13 days; 100=total damage to plant, 0=no damage to plant
Procedure: as §1

Structure (SMILES) | Post-Emergence Activity AVEFA (Avena fatua (AVEFA) [1]) | Post-Emergence Activity LOLPE (Lolium perenne (LOLPE) [2]) | Post-Emergence Activity ALOMY [3] | Post-Emergence Activity ECHCG [4] | Pre-Emergence Activity AVEFA (Avena fatua (AVEFA) [5]) | Pre-Emergence Activity LOLPE (Lolium perenne (LOLPE) [6]) | Pre-Emergence Activity ALOMY [7] | Pre-Emergence Activity ECHCG [8]
Cc1cc(C)c(C2C(=O)CC(Cc3ccoc3)C2=O)c(C)c1 (centres unmarked) [Compound T2, 4-Furan-3-ylmethyl-2-(2,4,6-trimethyl-phenyl)-cyclopentane-1,3-dione] | 20 | 80 | 60 | 80 | 20 | 80 | 30 | 0
COC1=C(c2c(C)cc(C)cc2C)C(=O)C(C(O)c2cc(C)c(C)o2)C1 (centres unmarked) [Compound P1] | – | – | – | – | 0 | 40 | 0 | 0
Cc1cc(C)c(C2C(=O)C/C(=C\c3ccco3)C2=O)c(C)c1 (centres unmarked) [Compound T8] | 0 | 30 | 10 | 30 | – | – | – | –
Cc1cc(C)c(C2=C(OC(=O)C(C)(C)C)C/C(=C\c3ccoc3)C2=O)c(C)c1 [Compound P2, 2,2-Dimethyl-propionic acid 4-[1-furan-3-yl-meth-(E)-ylidene]-3-oxo-2-(2,4,6-trimethyl-phenyl)-cyclopent-1-enyl ester] | – | – | – | – | 0 | 90 | 0 | 0
Cc1cc(C)c(C2C(=O)CC(Cc3ccc(C)o3)C2=O)c(C)c1 (centres unmarked) [Compound T4] | 20 | 50 | 40 | 30 | – | – | – | –
Cc1cc(C)c(C2C(=O)CC(Cc3cc(C)on3)C2=O)c(C)c1 (centres unmarked) [Compound T3, 4-(5-methyl-isoxazol-3-ylmethyl)-2-(2,4,6-trimethyl-phenyl)-cyclopentane-1,3-dione] | 80 | 90 | 90 | 80 | 70 | 100 | 100 | 80

Source: patent US8889595B2, “Herbicides” (Syngenta Participations AG, priority 2008, dated 2014)
